Reference: patent US7241784B2, “Carboxylic acid derivative and a pharmaceutical composition containing the derivative as active ingredient” (Ono Pharmaceutical Co., Ltd., priority 1998, dated 2007)

Assays:
human PPARα = target: T1, human PPARα (Homo sapiens, UniProt Q07869); test: Luciferase assay using human PPARα (Gal4-PPARα LBD chimeric receptor, CV-1 cells); type: cell-based; conditions: PPARα agonistic activity, compound 10 μM, luciferase activity of carbacyclin (10 μM) defined as 1.0, 42 hours
T1 construct: expressed in transfected cells; host or cells: CV-1 cells
T1 sequence (Q07869 167-468): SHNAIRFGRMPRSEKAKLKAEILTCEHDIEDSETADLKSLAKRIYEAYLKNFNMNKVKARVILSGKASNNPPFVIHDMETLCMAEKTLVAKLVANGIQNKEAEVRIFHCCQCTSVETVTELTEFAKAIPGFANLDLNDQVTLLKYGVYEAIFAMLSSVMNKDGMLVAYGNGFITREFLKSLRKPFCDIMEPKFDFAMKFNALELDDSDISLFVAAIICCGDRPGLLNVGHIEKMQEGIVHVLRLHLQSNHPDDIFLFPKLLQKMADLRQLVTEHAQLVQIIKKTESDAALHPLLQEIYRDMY

human PPARγ = target: T2, human PPARγ (Homo sapiens, UniProt P37231); test: Luciferase assay using human PPARγ (Gal4-PPARγ LBD chimeric receptor, CV-1 cells); type: cell-based; conditions: PPARγ agonistic activity, compound 10 μM, luciferase activity of troglitazone (10 μM) defined as 1.0, 42 hours
T2 construct: expressed in transfected cells; host or cells: CV-1 cells
T2 sequence (P37231 204-505): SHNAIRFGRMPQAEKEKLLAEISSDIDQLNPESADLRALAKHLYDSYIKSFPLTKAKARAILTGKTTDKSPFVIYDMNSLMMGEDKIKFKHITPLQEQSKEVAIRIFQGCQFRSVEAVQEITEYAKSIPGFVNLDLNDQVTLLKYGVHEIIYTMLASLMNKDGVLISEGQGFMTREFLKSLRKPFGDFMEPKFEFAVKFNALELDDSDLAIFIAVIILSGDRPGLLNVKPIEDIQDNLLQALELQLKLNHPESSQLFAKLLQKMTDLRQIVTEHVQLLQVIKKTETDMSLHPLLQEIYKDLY

KKAy/Ta mice = test: Hypoglycemic and hypolipidemic effects in KKAy/Ta mice; type: in vivo; conditions: male KKAy/Ta mice, food mixture containing 0.03% (w/w) compound for two days, 5 mice per group; for TG level on Day 3: control 523 ± 144; for glycemic level on Day 3: control 638 ± 63
Description: Hypoglycemic and Hypolipidemic Effects
Male, 7-weeks old KKAy/Ta mice weighed from 35 to 40 g (five mice per group) were pre-breaded for approximately one week and acclimatized for three days on milled diet. On the first day of the experiment (Day 0), mice were divided into some groups according to weight, plasma glucose and triglyceride (TG) levels to minimize the differences among groups. From the next day for two days they were given compounds by food mixture containing 0.03% (w/w) of the compound of the present invention or by milled diet only. At 13:00 of the third day, blood samples were collected to measure glucose and TG levels. Additionally, there was no significant difference in the food intake between control group (milled diet only) and compounds-treated group (milled diet containing 0.03% compounds).

SD rats = test: Hypocholesterolemic and hypolipidemic effects in SD rats given hypercholesterolemic food; type: in vivo; conditions: male SD rats, oral administration in 0.5% CMC, then hypercholesterolemic food, blood at 9:00 of the next day, 5 rats per group; for TC level: control 154 ± 8; for TG level: control 158 ± 19; for NEFA levle: control 537 ± 69
Description: Hypocholesterolemic and Hypolipidemic Effects
Male, six-weeks old SD rats (five rats per group) were left to take milled diet and water ad libitum and were acclimatized for 1 week.
At 9:00 on the first day of the experiment (Day 0), blood sampling was done from tail vein. The rats were divided into some groups according to body weight, triglyceride (TG), non-esterified fatty acid (NEFA) and total cholesterol (TC) levels to minimize differences of the parameters among the groups. At 17:00 of the day, the compound of the present invention dissolved in 0.5% aqueous solution of carboxymethylcellulose (CMC) was orally administered, and thereafter, with hypercholesterolemic food (5.5% peanut oil, 1.5% cholesterol and 0.5% cholic acid were mixed with milled CRF-1 diet, Charles River Inc.) was given to the rats.
At 9:00 of the next day, blood sampling was done from tail vein. The lipid levels in blood (TG, NEFA and TC levels) after administration of the compounds of the present invention were measured. There was no significant difference of the food intake between the control group (provided only 0.5% CMC) and the group treated with the compounds of the present invention.

| Compound | Relative Activity to a positive control compound (carbacyclin = 1) (human PPARα) | Relative Activity to a positive control compound (troglitazone = 1) (human PPARγ) | TG level on Day 3 (KKAy/Ta mice) [mg/dL] | glycemic level on Day 3 (KKAy/Ta mice) [mg/dL] | TC level (SD rats) [mg/dL] | TG level (SD rats) [mg/dL] | NEFA levle (SD rats) [μEq/l] |
| --- | --- | --- | --- | --- | --- | --- | --- |
| Cc1oc(-c2ccccc2)nc1CCOCCCCSCC(=O)O [Example 5 (8), 2-(4-(2-(5-methyl-2-phenyloxazol-4-yl)ethoxy)butylthio)acetic acid] | 2.2 | 2.3 |  |  |  |  |  |
| Cc1oc(-c2ccc3c(c2)OCO3)nc1CCOCC#CCSCC(=O)O [Example 5 (11), 2-(4-(2-(5-methyl-2-(1,3-dioxaindan-5-yl)oxazol-4-yl)ethoxy)-2-butynylthio)acetic acid] | 1.7 | 2.3 | 140 ± 75 | 306 ± 72 | 91 ± 6 | 90 ± 14 | 227 ± 17 |
| Cc1ccc(-c2nc(CCOCC#CCSCC(=O)O)c(C)o2)cc1 [Example 5 (10), 2-(4-(2-(5-methyl-2-(4-methylphenyl)oxazol-4-yl)ethoxy)-2-butynylthio)acetic acid] | 1.5 | 2.7 | 111 ± 38 | 339 ± 74 | 88 ± 6 | 95 ± 17 | 334 ± 55 |
| Cc1oc(-c2ccccc2)nc1CCOCC#CCSCC(=O)O [Example 5 (2), 2-(4-(2-(5-methyl-2-phenyloxazol-4-yl)ethoxy)-2-butynylthio)acetic acid] | 2.9 | 2.6 |  |  |  |  |  |
